The term Vd denotes the apparent volume that relates the amount in the body to the concentration in plasma or blood. By clearance is commonly meant the rate of elimination divided by the concentration. A lower clearance goes with inefficient removal. The half-life is how long it takes for the measured level to halve. The low end stands for fast loss, the high end for slow loss.

Each structure is given as a SMILES string. Starred links: 1 amine or outer side, 2 acyl side, 3 side chain; linkers in the order of their positions; H or OH if unused. Positions of bridges follow the written chain, without caps; N, C: chain ends. Non-standard residues stand in square brackets, D forms with d. Residues, ends and D or L forms follow the SMILES beside them. Groups on a side chain read outwards from the residue. *: point of attachment. X3 = O=C(O)CCCCCCCCCCCCCCCCCCC(=O)N[C@@H](CCC(=O)NCOCCOCC(=O)NCOCCOCC(=O)*)C(=O)O; X4 = CCCCCCCCCCCCCCCC(=O)N[C@@H](CCC(=O)NCOCCOCC(=O)NCOCCOCC(=O)*)C(=O)O; X1 = O=C(O)CCCCCCCCCCCCCCCCCCC(=O)NCOCCOCC(=O)*; C20 diacid = O=C(O)CCCCCCCCCCCCCCCCCCC(=O)*; C18 diacid = O=C(O)CCCCCCCCCCCCCCCCC(=O)*; C16 diacid = O=C(O)CCCCCCCCCCCCCCC(=O)*; γGlu = O=C(O)[C@H](CCC(=O)[*:2])N[*:1]; Palmitoyl = CCCCCCCCCCCCCCCC(=O)*; AEEA = NCCOCCOCC(=O)O

One data set can be described thus: in vivo. More on the design: species or system Sprague-Dawley rats. The following applies: male, Sprague-Dawley, rat, iv, 0.033 mg/kg. A digest of the protocol:
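Peptide plasma levels measured by UPLC-MS/MS (C18, product-ion monitoring) after protein precipitation or WCX SPE, calibrated in K2EDTA/protease-inhibitor rat plasma. Dosing in non-fasted male Sprague-Dawley rats (n=3): 0.033 mg/kg over 1 h by IV or SC infusion, or 0.3 mg/kg SC bolus; sampling up to 48 h.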
As to `CC[C@H](C)[C@H](NC(=O)[C@@H]1CCCN1C(=O)CNC(=O)[C@H](Cc1ccccc1)NC(=O)[C@H](CC(N)=O)NC(=O)[C@H](CC(N)=O)NC(=O)[C@H](CO)NC(=O)[C@H](CO)NC(=O)[C@H](CCCCN)NC(=O)[C@H](Cc1c[nH]cn1)NC(=O)[C@H](CCCCNC(=O)CC[C@H](NC(=O)CCCCCCCCCCCCCCCCCCC(=O)O)C(=O)O)NC(=O)[C@H](CCC(=O)O)NC(=O)[C@H](CC(N)=O)NC(=O)[C@H](C)NC(=O)[C@H](CC(C)C)NC(=O)[C@H](CCCNC(=N)N)NC(=O)[C@H](CCC(N)=O)NC(=O)[C@@H](NC(=O)[C@H](C)NC(=O)[C@@H]1CSSC[C@H](NC(=O)[C@@H](N)CO)C(=O)N[C@@H](CC(N)=O)C(=O)N[C@@H]([C@@H](C)O)C(=O)N[C@@H](CO)C(=O)N[C@@H]([C@@H](C)O)C(=O)N1)[C@@H](C)O)C(=O)N[C@@H](CC(C)C)C(=O)N1CCC[C@H]1C(=O)N1CCC[C@H]1C(=O)N[C@H](C(=O)N[C@@H](CCCCN)C(=O)N[C@H](C(=O)NCC(=O)N[C@@H](CO)C(=O)N[C@@H](CCC(=O)O)C(=O)N[C@H](C(=O)N[C@@H](Cc1ccc(O)cc1)C(N)=O)[C@@H](C)O)C(C)C)[C@@H](C)O` [Compound A73] (H-SCNTSTCATQRLANEK([γGlu-C20 diacid])HKSSNNFGPILPPTKVGSETY-NH2; disulfide 2-7; N-terminus assumed), the Vd is 0.0924 L/kg, the clearance stood at 0.0449 mL/min/kg and the half-life was 26.6 h.

Still in this data set, the particulars now being: rat, iv, 0.033 mg/kg.
As to `CCCCCCCCCCCCCCCC(=O)N[C@@H](CCC(=O)NCCOCCOCC(=O)NCCOCCOCC(=O)N[C@@H](CCC(=O)NCCCC[C@@H](NC(=O)[C@H](CCC(=O)O)NC(=O)[C@H](CC(N)=O)NC(=O)[C@H](C)NC(=O)[C@H](CC(C)C)NC(=O)[C@H](CCCNC(=N)N)NC(=O)[C@H](CCC(N)=O)NC(=O)[C@@H](NC(=O)[C@H](C)NC(=O)[C@@H]1CSSC[C@H](NC(=O)[C@@H](N)CO)C(=O)N[C@@H](CC(N)=O)C(=O)N[C@@H]([C@@H](C)O)C(=O)N[C@@H](CO)C(=O)N[C@@H]([C@@H](C)O)C(=O)N1)[C@@H](C)O)C(=O)N[C@@H](Cc1c[nH]cn1)C(=O)N[C@@H](CCCCN)C(=O)N[C@@H](CO)C(=O)N[C@@H](CO)C(=O)N[C@@H](CC(N)=O)C(=O)N[C@@H](CC(N)=O)C(=O)N[C@@H](Cc1ccccc1)C(=O)NCC(=O)N1CCC[C@H]1C(=O)N[C@H](C(=O)N[C@@H](CC(C)C)C(=O)N1CCC[C@H]1C(=O)N1CCC[C@H]1C(=O)N[C@H](C(=O)N[C@@H](CCCCN)C(=O)N[C@H](C(=O)NCC(=O)N[C@@H](CO)C(=O)N[C@@H](CCC(=O)O)C(=O)N[C@H](C(=O)N[C@@H](Cc1ccc(O)cc1)C(N)=O)[C@@H](C)O)C(C)C)[C@@H](C)O)[C@@H](C)CC)C(=O)O)C(=O)O` [Compound A25] (H-SCNTSTCATQRLANE[dK]([γGlu-AEEA-AEEA-γGlu-Palmitoyl])HKSSNNFGPILPPTKVGSETY-NH2; disulfide 2-7; N-terminus assumed), the Vd stood at 0.249 L/kg, the clearance came to 0.788 mL/min/kg and the half-life was 4.97 h.

`CC[C@H](C)[C@H](NC(=O)[C@@H]1CCCN1C(=O)CNC(=O)[C@H](Cc1ccccc1)NC(=O)[C@H](CC(N)=O)NC(=O)[C@H](CC(N)=O)NC(=O)[C@H](CO)NC(=O)[C@H](CO)NC(=O)[C@H](CCCCN)NC(=O)[C@H](Cc1c[nH]cn1)NC(=O)[C@H](CC(C)C)NC(=O)[C@H](CCCCNC(=O)CC[C@H](NC(=O)CC[C@H](NC(=O)COCCOCNC(=O)COCCOCNC(=O)CC[C@H](NC(=O)CCCCCCCCCCCCCCCCCCC(=O)O)C(=O)O)C(=O)O)C(=O)O)NC(=O)[C@H](CC(N)=O)NC(=O)[C@H](C)NC(=O)[C@H](CC(C)C)NC(=O)[C@H](CCCNC(=N)N)NC(=O)[C@H](CCC(N)=O)NC(=O)[C@@H](NC(=O)[C@H](C)NC(=O)[C@@H]1CSSC[C@H](NC(=O)[C@@H](N)CO)C(=O)N[C@@H](CC(N)=O)C(=O)N[C@@H]([C@@H](C)O)C(=O)N[C@@H](CO)C(=O)N[C@@H]([C@@H](C)O)C(=O)N1)[C@@H](C)O)C(=O)N[C@@H](CC(C)C)C(=O)N1CCC[C@H]1C(=O)N1CCC[C@H]1C(=O)N[C@H](C(=O)N[C@@H](CCCCN)C(=O)N[C@H](C(=O)NCC(=O)N[C@@H](CO)C(=O)N[C@@H](CCC(=O)O)C(=O)N[C@H](C(=O)N[C@@H](Cc1ccc(O)cc1)C(N)=O)[C@@H](C)O)C(C)C)[C@@H](C)O` [Compound A94] (H-SCNTSTCATQRLANK([γGlu-γGlu-X3])LHKSSNNFGPILPPTKVGSETY-NH2; disulfide 2-7; N-terminus assumed) had a Vd of 0.084 L/kg, a clearance of 0.0365 mL/min/kg and a half-life of 29.3 h.

Take `CCCCCCCCCCCCCCCC(=O)N[C@@H](CCC(=O)NCOCCOCC(=O)NCOCCOCC(=O)N[C@@H](CCC(=O)NCCCC[C@H](NC(=O)[C@H](CCC(=O)O)NC(=O)[C@H](CC(N)=O)NC(=O)[C@H](C)NC(=O)[C@H](CC(C)C)NC(=O)[C@H](CCCNC(=N)N)NC(=O)[C@H](CCC(N)=O)NC(=O)[C@@H](NC(=O)[C@H](C)NC(=O)[C@@H]1CSSC[C@H](NC(=O)[C@@H](N)CO)C(=O)N[C@@H](CC(N)=O)C(=O)N[C@@H]([C@@H](C)O)C(=O)N[C@@H](CO)C(=O)N[C@@H]([C@@H](C)O)C(=O)N1)[C@@H](C)O)C(=O)N[C@@H](Cc1c[nH]cn1)C(=O)N[C@@H](CCCCN)C(=O)N[C@@H](CO)C(=O)N[C@@H](CO)C(=O)N[C@@H](CC(N)=O)C(=O)N[C@@H](CC(N)=O)C(=O)N[C@@H](Cc1ccccc1)C(=O)NCC(=O)N1CCC[C@H]1C(=O)N[C@H](C(=O)N[C@@H](CC(C)C)C(=O)N1CCC[C@H]1C(=O)N1CCC[C@H]1C(=O)N[C@H](C(=O)N[C@@H](CCCCN)C(=O)N[C@H](C(=O)NCC(=O)N[C@@H](CO)C(=O)N[C@@H](CCC(=O)O)C(=O)N[C@H](C(=O)N[C@@H](Cc1ccc(O)cc1)C(N)=O)[C@@H](C)O)C(C)C)[C@@H](C)O)[C@@H](C)CC)C(=O)O)C(=O)O` [Compound A63] (H-SCNTSTCATQRLANEK([γGlu-X4])HKSSNNFGPILPPTKVGSETY-NH2; disulfide 2-7; N-terminus assumed): the Vd was 0.54 L/kg, the clearance was determined as 2.66 mL/min/kg and the half-life was 2.81 h.

The molecule `CC[C@H](C)[C@H](NC(=O)[C@@H]1CCCN1C(=O)CNC(=O)[C@H](Cc1ccccc1)NC(=O)[C@H](CC(N)=O)NC(=O)[C@H](CC(N)=O)NC(=O)[C@H](CO)NC(=O)[C@H](CO)NC(=O)[C@H](CCCCN)NC(=O)[C@H](Cc1c[nH]cn1)NC(=O)[C@H](CC(C)C)NC(=O)[C@@H](CCCCNC(=O)CC[C@H](NC(=O)CC[C@H](NC(=O)COCCOCNC(=O)CCCCCCCCCCCCCCCCCCC(=O)O)C(=O)O)C(=O)O)NC(=O)[C@H](CC(N)=O)NC(=O)[C@H](C)NC(=O)[C@H](CC(C)C)NC(=O)[C@H](CCCNC(=N)N)NC(=O)[C@H](CCC(N)=O)NC(=O)[C@@H](NC(=O)[C@H](C)NC(=O)[C@@H]1CSSC[C@H](NC(=O)[C@@H](N)CO)C(=O)N[C@@H](CC(N)=O)C(=O)N[C@@H]([C@@H](C)O)C(=O)N[C@@H](CO)C(=O)N[C@@H]([C@@H](C)O)C(=O)N1)[C@@H](C)O)C(=O)N[C@@H](CC(C)C)C(=O)N1CCC[C@H]1C(=O)N1CCC[C@H]1C(=O)N[C@H](C(=O)N[C@@H](CCCCN)C(=O)N[C@H](C(=O)NCC(=O)N[C@@H](CO)C(=O)N[C@@H](CCC(=O)O)C(=O)N[C@H](C(=O)N[C@@H](Cc1ccc(O)cc1)C(N)=O)[C@@H](C)O)C(C)C)[C@@H](C)O` [Compound A96] (H-SCNTSTCATQRLAN[dK]([γGlu-γGlu-X1])LHKSSNNFGPILPPTKVGSETY-NH2; disulfide 2-7; N-terminus assumed) had a Vd of 0.153 L/kg, a clearance of 0.0996 mL/min/kg and a half-life of 20.1 h.

On to `CC[C@H](C)[C@H](NC(=O)[C@@H]1CCCN1C(=O)CNC(=O)[C@H](Cc1ccccc1)NC(=O)[C@H](CC(N)=O)NC(=O)[C@H](CC(N)=O)NC(=O)[C@H](CO)NC(=O)[C@H](CO)NC(=O)[C@H](CCCCN)NC(=O)[C@H](Cc1c[nH]cn1)NC(=O)[C@H](CCCCNC(=O)CCCCCCCCCCCCCCC(=O)O)NC(=O)[C@H](CCC(=O)O)NC(=O)[C@H](CC(N)=O)NC(=O)[C@H](C)NC(=O)[C@H](CC(C)C)NC(=O)[C@H](CCCNC(=N)N)NC(=O)[C@H](CCC(N)=O)NC(=O)[C@@H](NC(=O)[C@H](C)NC(=O)[C@@H]1CSSC[C@H](NC(=O)[C@@H](N)CO)C(=O)N[C@@H](CC(N)=O)C(=O)N[C@@H]([C@@H](C)O)C(=O)N[C@@H](CO)C(=O)N[C@@H]([C@@H](C)O)C(=O)N1)[C@@H](C)O)C(=O)N[C@@H](CC(C)C)C(=O)N1CCC[C@H]1C(=O)N1CCC[C@H]1C(=O)N[C@H](C(=O)N[C@@H](CCCCN)C(=O)N[C@H](C(=O)NCC(=O)N[C@@H](CO)C(=O)N[C@@H](CCC(=O)O)C(=O)N[C@H](C(=O)N[C@@H](Cc1ccc(O)cc1)C(N)=O)[C@@H](C)O)C(C)C)[C@@H](C)O` [Compound A86] (H-SCNTSTCATQRLANEK(C16 diacid)HKSSNNFGPILPPTKVGSETY-NH2; disulfide 2-7), for which the Vd was 0.0936 L/kg, the clearance was 0.297 mL/min/kg and the half-life is 4.65 h.

In the case of `CC[C@H](C)[C@H](NC(=O)[C@@H]1CCCN1C(=O)CNC(=O)[C@H](Cc1ccccc1)NC(=O)[C@H](CC(N)=O)NC(=O)[C@H](CC(N)=O)NC(=O)[C@H](CO)NC(=O)[C@H](CO)NC(=O)[C@H](CCCCN)NC(=O)[C@H](Cc1c[nH]cn1)NC(=O)[C@H](CCCCNC(=O)CCCCCCCCCCCCCCCCC(=O)O)NC(=O)[C@H](CCC(=O)O)NC(=O)[C@H](CC(N)=O)NC(=O)[C@H](C)NC(=O)[C@H](CC(C)C)NC(=O)[C@H](CCCNC(=N)N)NC(=O)[C@H](CCC(N)=O)NC(=O)[C@@H](NC(=O)[C@H](C)NC(=O)[C@@H]1CSSC[C@H](NC(=O)[C@@H](N)CO)C(=O)N[C@@H](CC(N)=O)C(=O)N[C@@H]([C@@H](C)O)C(=O)N[C@@H](CO)C(=O)N[C@@H]([C@@H](C)O)C(=O)N1)[C@@H](C)O)C(=O)N[C@@H](CC(C)C)C(=O)N1CCC[C@H]1C(=O)N1CCC[C@H]1C(=O)N[C@H](C(=O)N[C@@H](CCCCN)C(=O)N[C@H](C(=O)NCC(=O)N[C@@H](CO)C(=O)N[C@@H](CCC(=O)O)C(=O)N[C@H](C(=O)N[C@@H](Cc1ccc(O)cc1)C(N)=O)[C@@H](C)O)C(C)C)[C@@H](C)O` [Compound A93] (H-SCNTSTCATQRLANEK(C18 diacid)HKSSNNFGPILPPTKVGSETY-NH2; disulfide 2-7), the Vd turned out to be 0.129 L/kg, the clearance came out at 0.109 mL/min/kg and the half-life is 16.7 h.

(Values after patent US12018059B2, “Human amylin analog polypeptides and methods of use” (Intarcia Therapeutics, Inc., priority 2018, dated 2024).)
